Reference: US7041677B2, “Use of monochloroflosequinan in the treatment of sexual dysfunction” (R.T. Alamo Ventures I, LLC, priority 2002, dated 2006)
One block for each compound: values may come before it.

Columns and labels:
[1] = molecular target: T1, PDE3 (Homo sapiens, UniProt Q14432); assay: PDE3 enzyme inhibition assay; assay type: biochemical; settings: 1% DMSO vehicle
T1 construct: PDE3 partially purified from human platelets was used; from tissue; host or cells: human platelets
Description: In this example, a racemic mixture of monochloroflosequinan and the sulfone derivative of monochloroflosequinan were independently subjected to biochemical enzyme assays to determine their respective percent inhibition of a variety of phosphodiesterases (PDE1-PDE6). The methods used have been adapted from those described in the scientific literature, see Hidaka and Asano “Human blood platelet 3′:5′ cyclic nucleotide phosphodiesterase. Isolation of low-Km and high Km phosphodiesterase.” Biochem. Biophys. Acta 429:485 (1976); Nicholoson et al. “Differential modulation of tissue function and therapeutic potential of selective inhibitors of cyclic nucleotide phosphodiesterase isoenzymes” Trends Pharmacol. Sci. 12:19 (1991); Cortijo et al. “Investigation into the role of phosphodiesterase IV in bronchorelaxation, including studies with hyman bronchus.” Br. J. Pharmacol. 108:562 (1993); Baehr et al. “Isolation and characterization of cGMP phosphodiesterase from bovine rod outer segments.” J. Biol. Chem. 254:11669 (1979) and Gillespie and Beavo “Inhibition and stimulation of photoreceptor phosphodiesterase by dipyridamole and M&B 22,948” Molecular Pharm. 36:773 (1989). A brief summary of the conditions for each enzyme assay is provided below: • PDE1: PDE1 partially purified from bovine heart was used. The compounds were independently incubated with 13 μg PDE1 enzyme, 1.01 μM [^3H]cAMP+cAMP and CaCl2/calmodulin in Tris buffer pH 7.5 for 20 minutes at either 25° C. or 30° C. The reaction was terminated by boiling for 2 minutes, and the resulting AMP was converted to adenosine by addition of 10 mg/ml snake venom nucleotidase and further incubation at 30° C. for 10 minutes. Unhydrolyzed cAMP was bound to AGI-X2 resin, and the remaining [^3H]adenosine in the aqueous phase was quantitated by scintillation counting. • PDE2: PDE2 partially purified from human platelets was used. The compounds were independently incubated with 23 μg PDE2 enzyme, 25.1 μM [^3H]cAMP+cAMP in Tris buffer pH 7.5 for 20 minutes at either 25° C. or 30° C. […] Unhydrolyzed cAMP was bound to AGI-X2 resin, and the remaining [^3H]adenosine in the aqueous phase was quantitated by scintillation counting. • PDE3: PDE3 partially purified from human platelets was used. […] Unhydrolyzed cAMP was bound to AGI-X2 resin, and the remaining [^3H]adenosine in the aqueous phase was quantitated by scintillation counting. • PDE4: PDE4 partially purified from human U-937 pronocytic cells was used. […] Unhydrolyzed cAMP was bound to AGI-X2 resin, and the remaining [^3H]adenosine in the aqueous phase was quantitated by scintillation counting. • PDE5: PDE5 partially purified from human platelets was used. […]

[2] = molecular target: T2, PDE1 (Bos taurus, UniProt P14100); assay: PDE1 enzyme inhibition assay; assay type: biochemical, bovine; settings: 1% DMSO vehicle
T2 construct: PDE1 partially purified from bovine heart was used; from tissue; host or cells: bovine heart
Description: In this example, a racemic mixture of monochloroflosequinan and the sulfone derivative of monochloroflosequinan were independently subjected to biochemical enzyme assays to determine their respective percent inhibition of a variety of phosphodiesterases (PDE1-PDE6). The methods used have been adapted from those described in the scientific literature, see Hidaka and Asano “Human blood platelet 3′:5′ cyclic nucleotide phosphodiesterase. Isolation of low-Km and high Km phosphodiesterase.” Biochem. Biophys. Acta 429:485 (1976); Nicholoson et al. “Differential modulation of tissue function and therapeutic potential of selective inhibitors of cyclic nucleotide phosphodiesterase isoenzymes” Trends Pharmacol. Sci. 12:19 (1991); Cortijo et al. “Investigation into the role of phosphodiesterase IV in bronchorelaxation, including studies with hyman bronchus.” Br. J. Pharmacol. 108:562 (1993); Baehr et al. “Isolation and characterization of cGMP phosphodiesterase from bovine rod outer segments.” J. Biol. Chem. 254:11669 (1979) and Gillespie and Beavo “Inhibition and stimulation of photoreceptor phosphodiesterase by dipyridamole and M&B 22,948” Molecular Pharm. 36:773 (1989). A brief summary of the conditions for each enzyme assay is provided below: • PDE1: PDE1 partially purified from bovine heart was used. The compounds were independently incubated with 13 μg PDE1 enzyme, 1.01 μM [^3H]cAMP+cAMP and CaCl2/calmodulin in Tris buffer pH 7.5 for 20 minutes at either 25° C. or 30° C. The reaction was terminated by boiling for 2 minutes, and the resulting AMP was converted to adenosine by addition of 10 mg/ml snake venom nucleotidase and further incubation at 30° C. for 10 minutes. Unhydrolyzed cAMP was bound to AGI-X2 resin, and the remaining [^3H]adenosine in the aqueous phase was quantitated by scintillation counting. • PDE2: PDE2 partially purified from human platelets was used. The compounds were independently incubated with 23 μg PDE2 enzyme, 25.1 μM [^3H]cAMP+cAMP in Tris buffer pH 7.5 for 20 minutes at either 25° C. or 30° C. The reaction was terminated by boiling for 2 minutes, and the resulting AMP was converted to adenosine by addition of 10 mg/ml snake venom nucleotidase and further incubation at 30° C. for 10 minutes. Unhydrolyzed cAMP was bound to AGI-X2 resin, and the remaining [^3H]adenosine in the aqueous phase was quantitated by scintillation counting. • PDE3: PDE3 partially purified from human platelets was used. The compounds were independently incubated with 13 ug PDE3 enzyme and 1.01 μM [^3H]cAMP+cAMP in Tris buffer pH 7.5 for 20 minutes at either 25° C. or 30° C. The reaction was terminated by boiling for 2 minutes, and the resulting AMP was converted to adenosine by addition of 10 mg/ml snake venom nucleotidase and further incubation at 30° C. for 10 minutes. Unhydrolyzed cAMP was bound to AGI-X2 resin, and the remaining [^3H]adenosine in the aqueous phase was quantitated by scintillation counting. • PDE4: PDE4 partially purified from human U-937 pronocytic cells was used. The compounds were independently incubated with 20 μg PDE4 enzyme and 1.01 μM [^3H]cAMP+cAMP in Tris buffer pH 7.5 for 20 minutes at either 25° C. or 30° C. […] Unhydrolyzed cAMP was bound to AGI-X2 resin, and the remaining [^3H]adenosine in the aqueous phase was quantitated by scintillation counting. • PDE5: PDE5 partially purified from human platelets was used. […]

[3] = molecular target: T3, PDE5 (Homo sapiens, UniProt O76074); assay: PDE5 enzyme inhibition assay; assay type: biochemical; settings: 25° C., 1% DMSO vehicle
T3 construct: PDE5 partially purified from human platelets was used; from tissue; host or cells: human platelets
Description: In this example, a racemic mixture of monochloroflosequinan and the sulfone derivative of monochloroflosequinan were independently subjected to biochemical enzyme assays to determine their respective percent inhibition of a variety of phosphodiesterases (PDE1-PDE6). The methods used have been adapted from those described in the scientific literature, see Hidaka and Asano “Human blood platelet 3′:5′ cyclic nucleotide phosphodiesterase. Isolation of low-Km and high Km phosphodiesterase.” Biochem. Biophys. […] Unhydrolyzed cAMP was bound to AGI-X2 resin, and the remaining [^3H]adenosine in the aqueous phase was quantitated by scintillation counting. • PDE2: PDE2 partially purified from human platelets was used. […] Unhydrolyzed cAMP was bound to AGI-X2 resin, and the remaining [^3H]adenosine in the aqueous phase was quantitated by scintillation counting. • PDE3: PDE3 partially purified from human platelets was used. […] Unhydrolyzed cAMP was bound to AGI-X2 resin, and the remaining [^3H]adenosine in the aqueous phase was quantitated by scintillation counting. • PDE4: PDE4 partially purified from human U-937 pronocytic cells was used. […] Unhydrolyzed cAMP was bound to AGI-X2 resin, and the remaining [^3H]adenosine in the aqueous phase was quantitated by scintillation counting. • PDE5: PDE5 partially purified from human platelets was used. […]

T1 sequence (Q14432 whole entry): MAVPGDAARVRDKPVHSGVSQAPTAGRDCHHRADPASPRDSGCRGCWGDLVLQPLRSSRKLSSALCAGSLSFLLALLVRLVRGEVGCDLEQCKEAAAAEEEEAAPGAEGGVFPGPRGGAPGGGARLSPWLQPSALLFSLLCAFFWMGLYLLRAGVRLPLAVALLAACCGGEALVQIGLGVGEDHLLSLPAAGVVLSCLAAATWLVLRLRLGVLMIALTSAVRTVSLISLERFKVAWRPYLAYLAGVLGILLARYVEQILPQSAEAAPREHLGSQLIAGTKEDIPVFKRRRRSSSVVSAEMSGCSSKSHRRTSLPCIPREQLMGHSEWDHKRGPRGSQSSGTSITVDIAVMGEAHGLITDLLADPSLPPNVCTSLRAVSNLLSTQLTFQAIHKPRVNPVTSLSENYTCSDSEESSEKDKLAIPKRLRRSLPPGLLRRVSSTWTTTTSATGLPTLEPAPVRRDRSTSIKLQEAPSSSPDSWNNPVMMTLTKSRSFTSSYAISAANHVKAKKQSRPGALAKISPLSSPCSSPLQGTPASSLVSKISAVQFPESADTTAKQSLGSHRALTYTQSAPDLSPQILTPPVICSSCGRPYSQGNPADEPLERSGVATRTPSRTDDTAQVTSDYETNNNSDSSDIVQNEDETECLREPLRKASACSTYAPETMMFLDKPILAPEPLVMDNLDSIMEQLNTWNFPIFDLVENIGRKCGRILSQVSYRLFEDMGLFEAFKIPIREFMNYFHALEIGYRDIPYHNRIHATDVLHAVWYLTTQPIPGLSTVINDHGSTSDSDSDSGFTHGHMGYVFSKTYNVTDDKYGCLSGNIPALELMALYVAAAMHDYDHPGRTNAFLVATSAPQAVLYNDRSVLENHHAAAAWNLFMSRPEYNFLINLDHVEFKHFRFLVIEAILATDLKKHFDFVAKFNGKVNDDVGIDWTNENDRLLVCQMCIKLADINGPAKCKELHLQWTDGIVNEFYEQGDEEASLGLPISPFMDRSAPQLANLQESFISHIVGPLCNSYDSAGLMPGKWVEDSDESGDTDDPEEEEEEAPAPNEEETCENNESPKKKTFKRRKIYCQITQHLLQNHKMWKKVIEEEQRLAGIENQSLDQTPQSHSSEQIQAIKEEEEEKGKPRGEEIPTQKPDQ

inhibition of PDE3 ([1]; 100 uM, 30° C.): Significant inhibition | inhibition of PDE1 ([2]; 100 uM, 30° C.): Significant inhibition
Compound: Cn1cc([S+]([O-])CCl)c(=O)c2ccc(F)cc21 (racemic) [monochloroflosequinan, 3-chloromethylsulfinyl-7-fluoro-1-methyl-4-quinolone]

inhibition of PDE3 ([1]; 200 μM, 25° C.): greater than 50% | inhibition of PDE1 ([2]; 200 μM, 25° C.): greater than 50%
Compound: Cn1cc([S@@+]([O-])CCl)c(=O)c2ccc(F)cc21 (single isomer, unassigned) [(−)-enantiomer of monochloroflosequinan]

inhibition of PDE5 ([3]; varying concentrations): greater than 50% | inhibition of PDE3 ([1]; varying concentrations, 25° C.): greater than 50% | inhibition of PDE1 ([2]; varying concentrations, 25° C.): greater than 50%
Compound: Cn1cc([S+]([O-])C(Cl)Cl)c(=O)c2ccc(F)cc21 (stereo not shown) [dichloroflosequinan, 3-dichloromethylsulfinyl-7-fluoro-1-methyl-4-quinolone]

inhibition of PDE5 ([3]; 200 μM): greater than 50% | inhibition of PDE3 ([1]; 200 μM, 25° C.): greater than 50% | inhibition of PDE1 ([2]; 200 μM, 25° C.): greater than 50%
Compound: Cn1cc([S@+]([O-])CCl)c(=O)c2ccc(F)cc21 (single isomer, unassigned) [(+)-enantiomer of monochloroflosequinan]
